Laboratory results published in US20080318792A1, “Extension of pollination period” (priority 2007, published 2008).

How the values were obtained:
Assay type in all cases: in vivo
[1] = test system: corn seed lot "Hughes High" (commercial hybrid); experiment: Dose-response of corn soil emergence to ABA seed treatment in calendar and thermal time
Text: Because corn germination and phenology is driven by heat, the corn seed industry uses thermal time (Growing-Degree-Days, or GDD) rather than calendar time to measure and predict flowering. The standard formula for calculating the GDD contribution from one calendar day for corn is: where “Max temp” is either the high temperature for the day or 86, whichever is lower, and “Min temp” is either the low temperature for the day in F or 50, whichever is higher. In growth chambers at constant temperature the calculation is trivial. For example, in our nominally 25° C. chamber, the soil temperature is actually about 26.1° C. (79 F) due to the heat contribution of the light. This time corresponds to 29 GDD. […] The purpose of this experiment was to evaluate the dose response of corn seed emergence after seed treatment with ABA in terms of thermal time. ABA was applied at 0, 1, 2, 3, 4, 5, 10, 15, 20 and 25 g/cwt as the free acid in experimental seed treatment slurries as described under Example 1. The seed lot was designated as “Hughes High” and was a commercial hybrid. The seed was planted in soil in plastic boxes as described under Example 2, and incubated at 25° C. and 18° C. as described under Example 2. Emergence was counted every 1-2 days and the data reduced as described under Example 2. The daily heat unit contribution was calculated for the two chambers, and the responses examined in cumulative thermal time as well as calendar time.

[2] = test system: commercial inbred sorghum lines; experiment: Soil emergence of sorghum inbreds after ABA seed treatment; conditions: for Emergence / Median time to emergence / Quartile range: soil 20/30° C.
Method: Seed of four commercial inbred sorghum lines were obtained from a genetics supplier. These inbreds are representative of many male parents used in hybrid sorghum seed production. ABA in the form of the free acid was applied at rates of 0, 10, 25, 50 and 100 g/cwt. Application was performed as described under Example 2 above, except the Maxim XL (Syngenta) was applied at 0.334 oz/cwt, Allegiance FL (Bayer), was applied at 0.75 oz/cwt, and Thiram 42-S (Bayer) was applied at 3.5 oz/cwt, using a slurry rate of 25 oz/cwt. The seed was planted in soil in plastic boxes as described under Example 2, except at a depth of 2 cm., and incubated at 20/30° C. (AOSA Rules for Testing Seeds, 2005). Emergence was counted every 1-3 days and the data reduced as described under Example 2.

[3] = test system: Hughes 1883 hybrid corn seed; experiment: Soil germination/emergence of corn seed treated with different forms of ABA in slurry; conditions: for delay: treatments with ABA vs control; for Final emergence / QR / T50: 25 g/cwt as free acid
Method: Three forms of ABA were evaluated in this experiment 1) free acid, 2) ammonium salt, and 3) sodium salt. The cation is referred to as the “counter-ion” below. […] The treatments were made up in 3 ml samples of experimental aqueous seed treatment slurry. All of the seed treatment slurry samples contained CF-Clear film-forming agent and Colorcoat Red (Becker Underwood), each at 1 oz/cwt, and 0.167 oz/cwt Maxim XL fungicide (Syngenta). The slurry application volume was 20 oz/cwt (cwt=100 lbs of seed).
One hundred gram samples of Hughes 1883 hybrid corn seed were treated with the experimental slurries using a Hege 11 seed treater with a six-inch bowl.
The seed was planted in plastic boxes containing 1 kg of typical agricultural silt loam. Fifty seeds were planted 3 cm deep in each plastic box, and the soil in the box was adjusted to 21% soil moisture (wet-weight basis). Two replications of the experiment were incubated under constant light in a 25° C. chamber and two replications incubated under constant light in an 18° C. chamber. The boxes were watered up to the correct weight daily, and checked for emergence. Daily counts of seedlings were continued until emergence ceased. The final count of emerged seedlings was expressed as a percentage of the 50 seeds planted (GERM).
The daily counts were converted to proportions of the final germination of the box, and a Gompertz curve was fitted to the data from each box using SAS Proc NLIN. From the parameters of the model, median germination time (T50) and quartile range (QR) were estimated for each box. Analysis of variance was performed and means calculated for each of the three responses (GERM, T50, QR).

[4] = ABA free acid 20 g/cwt, 25° C. soil test
[5] = sorghum inbred 43, ABA 10 g/cwt
[6] = sorghum inbred 43, ABA 25 g/cwt
[7] = sorghum inbred 43, ABA 50 g/cwt
[8] = sorghum inbred 43, ABA 100 g/cwt
[9] = sorghum inbred 44, ABA 10 g/cwt
[10] = sorghum inbred 44, ABA 25 g/cwt
[11] = sorghum inbred 44, ABA 50 g/cwt
[12] = sorghum inbred 44, ABA 100 g/cwt
[13] = sorghum inbred 45, ABA 10 g/cwt
[14] = sorghum inbred 45, ABA 25 g/cwt
[15] = sorghum inbred 45, ABA 50 g/cwt
[16] = sorghum inbred 45, ABA 100 g/cwt
[17] = sorghum inbred 46, ABA 10 g/cwt
[18] = sorghum inbred 46, ABA 25 g/cwt
[19] = sorghum inbred 46, ABA 50 g/cwt
[20] = sorghum inbred 46, ABA 100 g/cwt

In the case of `CC1=CC(=O)CC(C)(C)[C@@]1(O)/C=C/C(C)=C\C(=O)O` [ABA, S-(+)-abscisic acid], the “effect on emergence of corn seedlings” value ([1]; ABA free acid 1-25 g/cwt, 18 and 25° C.) is reported as “delayed emergence progressively as the dose was increased”, the Emergence ([1]; ABA free acid 1 g/cwt, 18° C. soil test) is reported as 94.2% and the Emergence ([1]; ABA free acid 1 g/cwt, 25° C. soil test) is reported as 97.1%. The Emergence ([1]; ABA free acid 2 g/cwt, 18° C. soil test) was 91.2%, the Emergence ([1]; ABA free acid 2 g/cwt, 25° C. soil test) was 95.5% and the Emergence ([1]; ABA free acid 3 g/cwt, 18° C. soil test) was 94.0%. The Emergence ([1]; ABA free acid 3 g/cwt, 25° C. soil test) was 92.1%, the Emergence ([1]; ABA free acid 4 g/cwt, 18° C. soil test) was 89.2% and the Emergence ([1]; ABA free acid 4 g/cwt, 25° C. soil test) was 96.3%. For the same molecule, the Emergence ([1]; ABA free acid 5 g/cwt, 18° C. soil test) was 92.0%, the Emergence ([1]; ABA free acid 5 g/cwt, 25° C. soil test) was 95.0% and the Emergence ([1]; ABA free acid 10 g/cwt, 18° C. soil test) was 94.0%. For the same molecule, the Emergence ([1]; ABA free acid 10 g/cwt, 25° C. soil test) was 89.0%, the Emergence ([1]; ABA free acid 15 g/cwt, 18° C. soil test) was 92.1% and the Emergence ([1]; ABA free acid 15 g/cwt, 25° C. soil test) was 96.3%. It also gave an Emergence ([1]; ABA free acid 20 g/cwt, 18° C. soil test) of 90.1%, an Emergence [1, 4] of 95.0% and a delay [1, 4] of 3.4 days. For the same molecule, the Emergence ([1]; ABA free acid 25 g/cwt, 18° C. soil test) was 88.1%, the Emergence ([1]; ABA free acid 25 g/cwt, 25° C. soil test) was 97.1% and the “effect on emergence of sorghum inbreds” value ([2]; ABA 10-100 g/cwt) was “progressively and significantly delayed emergence”. The Emergence [2, 5] was 94.0%, the “Median time to emergence” value [2, 5] was 5.1 days and the Quartile range [2, 5] was 1.5 days. The Emergence [2, 6] was 94.2%, the “Median time to emergence” value [2, 6] was 6.3 days and the Quartile range [2, 6] was 2.2 days. For the same molecule, the Emergence [2, 7] was 87.2%, the “Median time to emergence” value [2, 7] was 8.6 days and the Quartile range [2, 7] was 3.7 days. For the same molecule, the Emergence [2, 8] was 87.9%, the “Median time to emergence” value [2, 8] was 11.3 days and the Quartile range [2, 8] was 4.8 days. For the same molecule, the Emergence [2, 9] was 79.0%, the “Median time to emergence” value [2, 9] was 5.7 days and the Quartile range [2, 9] was 2.6 days. For the same molecule, the Emergence [2, 10] was 73.2%, the “Median time to emergence” value [2, 10] was 8.4 days and the Quartile range [2, 10] was 3.2 days. For the same molecule, the Emergence [2, 11] was 71.3%, the “Median time to emergence” value [2, 11] was 10.7 days and the Quartile range [2, 11] was 4.6 days. For the same molecule, the Emergence [2, 12] was 49.0%, the “Median time to emergence” value [2, 12] was 14.4 days and the Quartile range [2, 12] was 4.7 days. For the same molecule, the Emergence [2, 13] was 81.3%, the “Median time to emergence” value [2, 13] was 5.4 days and the Quartile range [2, 13] was 1.5 days. The Emergence [2, 14] was 77.1%, the “Median time to emergence” value [2, 14] was 7.3 days and the Quartile range [2, 14] was 3.1 days. The Emergence [2, 15] was 54.1%, the “Median time to emergence” value [2, 15] was 10.6 days and the Quartile range [2, 15] was 3.5 days. The Emergence [2, 16] was 25.0%, the “Median time to emergence” value [2, 16] was 14.9 days and the Quartile range [2, 16] was 6.7 days. The Emergence [2, 17] was 89.2%, the “Median time to emergence” value [2, 17] was 5.7 days and the Quartile range [2, 17] was 2.6 days. The Emergence [2, 18] was 86.1%, the “Median time to emergence” value [2, 18] was 7.0 days and the Quartile range [2, 18] was 3.0 days. The Emergence [2, 19] was 86.2%, the “Median time to emergence” value [2, 19] was 8.8 days and the Quartile range [2, 19] was 3.9 days. For the same molecule, the Emergence [2, 20] was 75.1%, the “Median time to emergence” value [2, 20] was 11.4 days and the Quartile range [2, 20] was 5.0 days. For the same molecule, the “delay as a fraction of the germination time of the control at the same temperature” value ([3]; 18 and 25° C.) was “roughly doubling the time to emergence”, the delay ([3]; 18° C.) was 5.8 days and the Final emergence ([3]; soil 18° C.) was 97%. It also gave a QR ([3]; soil 18° C.) of 2.96 days, a T50 ([3]; soil 18° C.) of 11.4 days and a Final emergence ([3]; soil 25° C.) of 96%. For the same molecule, the QR ([3]; soil 25° C.) was 1.32 days, the T50 ([3]; soil 25° C.) was 7.7 days and the delay ([3]; 25° C.) was 4.4 days. The median-time-to-germination ([3]; regardless of counter-ion, 18 and 25° C., p<0.0001) was “increased” and the Quartile range ([3]; regardless of counter-ion, 18 and 25° C., p<0.0002) was “increased”.
